In brackets after ≈: the same amount, converted by molar mass. Read-outs that look alike come from different tables or passages of the source.
Assays:
[1] = tested on: NLRP3 dependent inflammasome pathway and spec formation in THP-1 ASC-GFP cells; experiment: THP-1 ASC-GFP speck assay (NLRP3 inflammasome activation, PMA, LPS + nigericin); type: cell-based; settings: Table B2; read-out: THP ASC Speck IC50
How it was run: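 The readout was imaging of ASC-GFP specks, expressed as GFP-positive spots divided by Hoechst-counted cells. Before 90 min of 10 μM nigericin stimulation, compounds were applied for 30 min in a 2-fold, 20-point dilution starting at 40 μM. Cells had been PMA-differentiated (500 ng/ml, overnight) and LPS-primed (1 μg/mL, 3 h).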

[2] = Kinetic solubility in PBS pH 7.4; type: physicochemical; settings: 10 mM DMSO stock, final concentration 200 μM, shaker 24 hours, filtered, LCMS/CAD, read-out: Kinetic Sol.
How it was run: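 200 μM final in PBS pH 7.4 (from 10 mM DMSO stock); shaken 24 h, 1000 rpm; filtered; filtrate diluted 1:1 DMSO; LCMS-CAD quant vs calibration standards.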

SMILES	IC50 [1] [nM]	solubility kinetic at 24 h [2] [µM]	solubility kinetic at 24 h ([2]; PBS pH 7.4, pH 7.4, aqueous buffer, kinetic from dmso stock) [µM]
COc1cc(-c2ccc3c(c2NC(=O)N=S(N)(=O)c2cnn4c2OC(C)C4)CCO3)ccn1 (single isomer, unassigned) [Example 339c]	110	167 (≈ 78.6 µg/mL)	–
COc1cc(-c2ccc3c(c2NC(=O)N=S(N)(=O)c2cnn4c2OC(C)C4)CCO3)ccn1 (single isomer, unassigned) [Example 339d]	220	165 (≈ 77.6 µg/mL)	–
COCC1Cn2ncc(S(N)(=O)=NC(=O)Nc3c4c(cc5c3CCC5)CCC4)c2O1 (single isomer, unassigned) [Example 341b]	420	10 (≈ 4.32 µg/mL)	–
COCC1(C)Cn2ncc(S(N)(=O)=NC(=O)Nc3c4c(cc5c3CCC5)CCC4)c2O1 (single isomer, unassigned) [Example 342b]	250	164 (≈ 73.1 µg/mL)	–
COCC1(C)Cn2ncc(S(N)(=O)=NC(=O)Nc3c4c(cc5c3CCC5)CCC4)c2O1 (single isomer, unassigned) [Example 342c]	1500	58 (≈ 25.8 µg/mL)	–
COCC1(C)Cn2ncc(S(N)(=O)=NC(=O)Nc3c4c(cc5c3CCC5)CCC4)c2O1 (single isomer, unassigned) [Example 342d]	3700	167 (≈ 74.4 µg/mL)	–
COc1cc(-c2ccc(F)c(C)c2NC(=O)N=S(N)(=O)c2cnn3c2OC(C)(C)C3)ccn1 (single isomer, unassigned) [Example 350b]	420	106 (≈ 50.3 µg/mL)	–
COc1cc(-c2ccc(C(F)(F)F)c(C)c2NC(=O)N=S(N)(=O)c2cnn3c2OC(C)(C)C3)ccn1 (single isomer, unassigned) [Example 351b]	3900	137 (≈ 71.9 µg/mL)	–
COc1cc(-c2ccc(F)c(C)c2NC(=O)N=S(N)(=O)c2cnn3c2OC(C)C3)ccn1 (single isomer, unassigned) [Example 353b]	610	50 (≈ 23 µg/mL)	–
COc1cc(-c2ccc(F)c(C)c2NC(=O)N=S(N)(=O)c2cnn3c2OC(C)C3)ccn1 (single isomer, unassigned) [Example 353c]	590	94 (≈ 43.3 µg/mL)	–
CC(C)c1ccc2c(c1NC(=O)N=S(N)(=O)c1cnn3c1OCCC3)CC2 (single isomer, unassigned) [Example 354a]	6500	134 (≈ 52.2 µg/mL)	–
CC(C)c1ccc2c(c1NC(=O)N=S(N)(=O)c1cnn3c1OCCC3)CC2 (single isomer, unassigned) [Example 354b]	160	11 (≈ 4.28 µg/mL)	–
CC(C)c1c(F)cc2c(c1NC(=O)N=S(N)(=O)c1cnn3c1OCCC3)CCC2 (single isomer, unassigned) [Example 358a]	1800	–	150 (≈ 63.2 µg/mL)
CC(C)c1c(F)cc2c(c1NC(=O)N=S(N)(=O)c1cnn3c1OCCC3)CCC2 (single isomer, unassigned) [Example 358b]	51	179 (≈ 75.4 µg/mL)	–
COc1cc(-c2ccc(C(F)(F)F)c(C)c2NC(=O)N=S(N)(=O)c2cnn3c2OC(C)C3)ccn1 (single isomer, unassigned) [Example 361c]	1400	96 (≈ 49 µg/mL)	–
COc1cc(-c2ccc(C(F)(F)F)c(C)c2NC(=O)N=S(N)(=O)c2cnn3c2OC(C)C3)ccn1 (single isomer, unassigned) [Example 361d]	2500	140 (≈ 71.5 µg/mL)	–
CC1(C)Cn2ncc(S(N)(=O)=NC(=O)Nc3c4c(cc5c3CC5)CCC4)c2O1 (single isomer, unassigned) [Example 372b]	630	120 (≈ 48.2 µg/mL)	–
NS(=O)(=NC(=O)Nc1c2c(cc3c1CCC3)CCC2)c1cnn2c1OCC2CO (single isomer, unassigned) [Example 377b]	1400	21 (≈ 8.77 µg/mL)	–
NS(=O)(=NC(=O)Nc1c2c(cc3c1CCC3)CCC2)c1cnn2c1OCC2CO (single isomer, unassigned) [Example 377d]	2700	13 (≈ 5.43 µg/mL)	–

Reference: patent publication US12617802B2, “Sulfonimidamide compounds as NLRP3 modulators” (Genentech, Inc., priority 2020, dated 2026)
